Structures can show the parent of a compound that is named as a salt.

3 compounds from BindingDB's records for doi:10.1021/jm030795v (Wroclaw University of Technology, 2003) can be followed below.

The target of this test is Cytosol aminopeptidase (Sus scrofa). As to the kind of experiment: Binding affinity for cytosolic leucine aminopeptidase (LAP) from porcine kidney.

The compound `CC(C)CC(N)C=O` (stereo not drawn) [2-Amino-4-methyl-pentanal] had a Ki of 0.06 µM.
To `CC(C)CC(OP(=O)(O)C(N)CC(C)C)C(=O)O` (stereo not drawn) [2-[(1-Amino-3-methyl-butyl)-hydroxy-phosphinoyloxy]-4-methyl-pentanoic acid] belongs 58 µM.
Under `CC(C)CC(O)P(=O)(O)NCC(=O)O` (stereo not drawn) [{[hydroxy(1-hydroxy-3-methylbutyl)phosphoryl]amino}acetic acid; dilithium salt] stands 4.88 µM.
